Measured values reported in patent publication US20240075243A1, “REUSABLE HYDROPHILIC URINARY CATHETER ASSEMBLY” (WELLSPECT AB, priority 2021, published 2024).

System: E. coli
Assay: Disinfection effect of hydration liquids on catheters immersed in E. coli suspension
Format: cell-based
Conditions: 4 hours immersion, incubated at 37 deg. C for 19.5 hours
Source text: In another line of experiments, hydration liquids with different types of disinfection mediums were used, and evaluated in respect of the disinfection effect. The hydration liquid comprised 5 wt % of PVP K30, and various disinfection mediums. As comparative examples, a hydration liquid with PVP K30 but without any disinfection medium was used, as well as a hydration liquid only comprising water. For the tests, catheters were first activated in a hydration liquid containing a disinfectant. Thereafter, the catheters were immersed in an E. coli suspension. The catheters were then rinsed in plain water, before again being immersed in the same hydration liquid used for the activation for 4 hours. Thereafter, the catheters were transferred into a growth medium and incubated at 37 deg. C for 19.5 hours. After this, it was determined whether, or not, bacterial growth had occurred during incubation.

Compound: O=[N+]([O-])[O-].[Ag+] [Silver nitrate, silver nitrate]
- Result after incubation (disinfection medium 0.05 wt % in hydration liquid with 5 wt % PVP K30): No growth
- Result after incubation (disinfection medium 0.2 wt % in hydration liquid with 5 wt % PVP K30): No growth

Compound: OCl [Sodium hypochlorite, sodium hypochlorite]
- Result after incubation (disinfection medium 0.02 wt % in hydration liquid with 5 wt % PVP K30): No growth

Compound: Oc1cc(Cl)ccc1Oc1ccc(Cl)cc1Cl [Triclosan, triclosan]
- Result after incubation (disinfection medium 0.075 wt % in hydration liquid with 5 wt % PVP K30): No growth
- Result after incubation (disinfection medium 0.3 wt % in hydration liquid with 5 wt % PVP K30): No growth

Compound: benzalkonium chloride
- Result after incubation (disinfection medium 0.025 wt % in hydration liquid with 5 wt % PVP K30): No growth
- Result after incubation (disinfection medium 0.1 wt % in hydration liquid with 5 wt % PVP K30): No growth
